Test results reported in article PMC12064818, “A general assay platform to study protein pharmacology using ligand-dependent structural dynamics” (Nature Communications, 2025).
Like-named read-outs stand apart in the source and are kept apart here. Each block holds one compound with its values, some of them ahead of it.

Key:
DHFR-C-HiBiT [1] = molecular target: T1, DHFR-C-HiBiT (Homo sapiens, UniProt P00374); experiment: SDR assay, purified DHFR-C-HiBiT
T1 sequence (P00374 2-187): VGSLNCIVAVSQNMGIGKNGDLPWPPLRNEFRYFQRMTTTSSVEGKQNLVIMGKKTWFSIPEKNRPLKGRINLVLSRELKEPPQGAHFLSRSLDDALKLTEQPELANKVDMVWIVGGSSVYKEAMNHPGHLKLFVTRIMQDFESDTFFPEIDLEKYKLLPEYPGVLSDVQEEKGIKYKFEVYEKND

DHFR-C-HiBiT [2] = molecular target: T1, DHFR-C-HiBiT; experiment: Dihydrofolate reductase enzymatic absorbance assay; type: biochemical; set-up: His10 (C); made in house; host or cells: E. coli
Experimental: To accommodate consistent compound addition used in this study, DHFR enzymatic activity[72],[73] was measured in a 1536-well miniaturized assay adapted from the Sigma-Aldrich dihydrofolate reductase assay (Cat # CS0340). […] Compounds and controls were added as above to each plate as described in Supplementary Data 8. DHFR-C-HiBiT was incubated with compounds for 20 min at ambient temperature. […] Then 2 µL of dihydrofolate (DHF, Sigma-Aldrich, Cat # D7006) substrate, freshly prepared according to manufacturer’s protocol and diluted in 1X assay kit buffer, was dispensed into each microplate well with a BioRaptr 2 for a final assay DHF concentration of 100 μM. […] See Supplementary Table 9 for additional details.
Supplementary Table 9. Protocol for Dihydrofolate reductase (DHFR) enzymatic absorbance […]
Supplementary Table 9: Protocol for Dihydrofolate reductase (DHFR) enzym atic absorbance assay Sequence Param eter ValueDescription
No enzym e control (colum n 1) and enzym e solution (100 nM DHFR-C-HiBiT final assay […]
(Aurora), dispensed with BioRaptr 2 […]
com pounds transferred to respective colum ns with Pintool
2b Test Com pounds 23 nLfinal concentration range) in colum ns 5-48; com pounds transferred to respective wells with […]
3 Incubation 20 m inIncubate enzym e + com pounds at am bient tem p for 20 m in, protected from light 5 Reagent 2 µLSubstrate solution; dihydrofolic acid (100 µM final concentration) in 1X assay buffer; dispensed with BioRaptr 2
6 Incubation 10 m inAm bient tem perature, protected from light
Dihydrofolic acid substrate solution: 1X assay buffer (Sigm a-Aldrich, Cat # A5603); 300 µM dihydrofolic acid (100 µM 5 final) (Sigm a-Aldrich, Cat # D7006) prepared fresh according to m anufacturer’s protocol. Solution filtered through 0.22 µm syringe filter prior to dispense.

[3] = molecular target: T2, endogenous DHFR-C-HiBiT in HEK293 cell lysate (Homo sapiens, UniProt P00374); experiment: SDR assay, cellular lysate from DHFR C-terminus HiBiT gene edited HEK293 cells; type: binding
T2 construct: from a mammalian cellular lysate containing an endogenous α-peptide tagged protein, obtained using CRISPR/Cas9-mediated homologous recombination; host or cells: HEK293 constitutively expressing S. pyogenes Cas9, CRISPR/HDR-edited monoclonal line; NP-40 lysate used at 1:100
T2 sequence (P00374 1-187): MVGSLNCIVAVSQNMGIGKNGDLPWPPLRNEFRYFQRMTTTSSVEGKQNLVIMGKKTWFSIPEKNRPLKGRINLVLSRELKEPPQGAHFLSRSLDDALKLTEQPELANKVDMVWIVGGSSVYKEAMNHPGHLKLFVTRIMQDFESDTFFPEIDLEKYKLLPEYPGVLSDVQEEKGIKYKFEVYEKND
Excerpt: A HEK293 cell line constitutively expressing S. pyogenes Cas9 (GeneCopoeia, Cat # SL553) was used to generate the C-terminal edit of the DHFR gene (DHFR-C-HiBiT) applying general methodology previously described[24],[52],[53]. The DHFR 3’-gene sequence surrounding the stop codon (underlined), […] […], used to generate the CRISPR-Cas9 crRNA sequence, […], was accomplished with IDT software (Custom Alt-R CRISPR-Cas9 guide RNA).
For lysate preparation, the DHFR-C-HiBiT gene edited HEK293 monoclonal cell line was grown in a T75 flask (DMEM, 10% FBS, 1% P/S) to confluence. […] The cell pellet was lysed by adding 500 μL ice-cold NP-40 lysis buffer (ThermoFisher Scientific, Cat # FNN0021) containing 5 µL 100x protease inhibitor cocktail in DMSO (Sigma Aldrich, Cat # P8340-1mL) incubated on a rocker at 4 °C for 1 h (protected from light), centrifuged at 15,000 g for 10 min at 4 °C, after which supernatant was transferred to a 1.5 mL Eppendorf tube, and frozen at −80 °C.
Protein-HiBiT targets were expressed and purified to various levels of homogeneity and optimized at indicated concentrations, not necessarily the lowest possible concentrations, to produce consistent luminescence with statistically significant signal above no protein background control in target specific assay buffer (see Supplementary Table 11). Four μL/well buffer control (column 1) and NLuc or HiBiT tagged proteins (columns 2-48) were dispensed into 1536-well Greiner Bio-One white, high solid base, medium bind plates with a BioRaptr 2. Compounds and controls were added to the microtiter plates as described in Supplementary Data 8, then incubated and protected from light for 30 min at ambient temperature. A modified dispensing protocol was developed for aqueous ligands that were unable to be transferred by pintool (see Supplementary Table 10 aqueous ligand dispense section). The substrate solution was prepared according to manufacturer’s protocol where ω-fragment (LgBiT) was added at 1:100 dilution and NLuc substrate (furimazine) was prepared at 1:50 dilution in Nano-Glo HiBiT lytic buffer (Promega, Cat # N3040). This substrate solution, 3 μL/well, was added with a BioRaptr 2 and assay plates were protected from light and incubated for 10 min at ambient temperature. NLuc luminescence was measured on a ViewLux CCD plate reader with optimized reader settings to each protein target (see Supplementary Tables 10, 11 and Supplementary Fig. 14 for additional details).

DHFR binding in SDR assay (in words) (DHFR-C-HiBiT [1]; purified DHFR-C-HiBiT): poor DHFR affinity | DHFR affinity in functional assay (in words) (DHFR-C-HiBiT [2]; DHFR-C-HiBiT 100 nM, 75 μM NADPH): poor DHFR affinity
Structure (SMILES): Nc1nc2[nH]cc(CCc3ccc(C(=O)N[C@@H](CCC(=O)O)C(=O)O)cc3)c2c(=O)[nH]1 [pemetrexed]

pSDR50 (lysate + 1 mM NADPH), Mean ([3]; 1:100 lysate (~0.2 nM) with 1 mM NADPH): 9.1 | pSDR50 (lysate), Mean ([3]; 1:100 lysate (~0.2 nM) without added NADPH): 7.8 | pSDR50 (DHFR-C-HiBiT), Mean (DHFR-C-HiBiT [1]; SDR assay using DHFR-C-HiBiT (0.5 nM)): 8.70 | pIC50 (DHFR Enz Assay), Mean (DHFR-C-HiBiT [2]; functional DHFR-C-HiBiT assay (100 nM, 75 mM NADPH)): 6.55
Structure (SMILES): CN(Cc1cnc2nc(N)nc(N)c2n1)c1ccc(C(=O)NC(CC(F)C(=O)O)C(=O)O)cc1 (centres unmarked) [g-fluoromethotrexate]

EC50 ([3]; 1:100 lysate (~0.2 nM) with 1 mM NADPH, read-out: pSDR50 (lysate + 1 mM NADPH), Mean (converted)): 0.316 nM | EC50 ([3]; 1:100 lysate (~0.2 nM) without added NADPH, read-out: pSDR50 (lysate), Mean (converted)): 3.16 nM | EC50 (DHFR-C-HiBiT [1]): 1.02 nM | enhanced sensitivity in the SDR assay format versus functional DHFR assay (DHFR-C-HiBiT [1]; DHFR-C-HiBiT 0.5 nM, 5 μM NADPH (SDR) vs 100 nM, 75 μM NADPH (functional)): ~ 100 fold | IC50 (DHFR-C-HiBiT [2]; functional DHFR-C-HiBiT assay (100 nM), read-out: pIC50 (DHFR Enz Assay), Mean (converted)): 107 nM
Structure (SMILES): C#CCC(Cc1cnc2nc(N)nc(N)c2n1)c1ccc(C(=O)N[C@@H](CCC(=O)O)C(=O)O)cc1 (some centres unmarked) [pralatrexate]
